Holding throughout (assay type): in vivo
The test system of data set [1] is houseflies (Musca domestics). The data set is described as follows: Housefly topical application test (Test Example 3). Conditions: 0.5 μl of 30 g/l acetone solution at back thoracic region (about 15 μg/one housefly), female houseflies, after 24 hours, three replicate. As for the experimental part: A solution (30 g/l) for each of the present compound (A) and the reference compound was prepared by diluting with acetone.
The acetone solution (0.5 μl) was applied to 10 female houseflies (Musca domestics) at the back thoracic region (active ingredient: about 15 μg/one housefly) by a microsyringe and the houseflies were left with water and feed in a plastic cup. After 24 hours, the mortality (%) was examined (three replicate).

Data set [2] relates to houseflies (Musca domestics). The data set is described as follows: Housefly filter paper test (Test Example 2). As to conditions: 0.7 ml of 500 ppm aqueous dilution on filter paper, female houseflies, after one day. As for the experimental part: Filter paper of 5.5 cm in diameter was laid in the bottom of a polyethylene cup (diameter: 5.5 cm). After 0.7 ml of a 500 ppm aqueous dilution obtained by diluting the formulation of the test compound prepared according to the formulation example 1 was dropped on the filter paper, 30 mg of sucrose was scattered. Ten female houseflies (Musca domestics) were left in the cup with a cover. After one day, the mortality of the houseflies was examined.

Data set [3] concerns German cockroaches (Blattella germanica). The data set is described as follows: German cockroach filter paper test (Test Example 1). Conditions: 144 h, 0.7 ml of 500 ppm aqueous dilution on filter paper, male German cockroaches, after six days. How it is done:
Filter paper of 5.5 cm in diameter was laid in the bottom of a polyethylene cup (diameter: 5.5 cm). After 0.7 ml of a 500 ppm aqueous dilution obtained by diluting the formulation of the test compound prepared according to the formulation example 1 was dropped on the filter paper, 30 mg of sucrose was scattered. Two male German cockroaches (Blattella germanica) were left in the polyethylene cup with a cover. After six days, the mortality of the German cockroaches was examined.

The values that follow come from patent publication US20020197294A1, “PYRONE COMPOUNDS AND THERE USE” (SUMITOMO CHEMICAL COMPANY, LIMITED, priority 2001, published 2002).

On to `Cc1cc(O)c(C(=O)CCC(F)(F)F)c(=O)o1` [the present compound (A), 4-hydroxy-6-methyl-3-(4,4,4-trifluorobutyryl)-2-pyrone], for which the “Mortality (%)” value in data set [1] was determined as 100%. For the same molecule, the “mortality of the houseflies” value in data set [2] came out at 100%. In data set [3], this molecule yielded a mortality at 500 ppm of 100%.
As to `Cc1cc(O)c(C(=O)CC(C)C(F)(F)F)c(=O)o1` (centres unmarked) [the present compound (B), 4-hydroxy-6-methyl-3-(3-trifluoromethylbutyryl)-2-pyrone], the “mortality of the houseflies” value in data set [2] is on record as 100%. This molecule yielded a mortality at 500 ppm in data set [3] of 100%.
For the molecule `Cc1cc(O)c(C(=O)CC(C(F)(F)F)C(F)(F)F)c(=O)o1` [the present compound (C), 4-hydroxy-6-methyl-3-(3-trifluoromethyl-4,4,4-trifluorobutyryl) -2-pyrone], the “mortality of the houseflies” value in data set [2] amounted to 100%. This molecule also showed a mortality at 500 ppm in data set [3] of 100%.
For the molecule `CCCC(=O)c1c(O)cc(C)oc1=O` [The Reference compound, reference compound], the “Mortality (%)” value in data set [1] amounted to 3.3%.
